# Laboratory results: patent publication US11807644B2 (PMV Pharmaceuticals, Inc., priority 2020, dated 2023)
# Target: T1, recombinant His-tag Y220C p53 DBD protein (Homo sapiens, UniProt P04637, Y220C)
# T1 construct: recombinant His-tag Y220C p53 DBD protein (amino acids #˜94-312)
# Assay: In vitro DNA binding activity assay (TR-FRET): binding of His-tag Y220C p53 DBD to biotin-labeled consensus DNA
# Assay type: biochemical
# Details: SC150 = concentration to increase DNA binding by […], His-tag Y220C p53 DBD, biotin-labeled consensus DNA
row,Y220C SC150 (μM),SMILES
1,* (* = 0 μM ≤ SC150 < 0.1 μM),"COc1cccc(C(=O)NCc2nnc(-c3cc4c(NC5CCN(C)CC5)cccc4n3CC(F)(F)F)s2)c1 [Compound 64B, 3-methoxy-N-[(5-{4-[(1-methylpiperidin-4-yl)amino]-1-(2,2,2-trifluoroethyl)-1H-indol-2-yl}-1,3,4-thiadiazol-2-yl)methyl]benzamide]"
2,** (** = 0.1 μM ≤ SC150 < 0.5 μM),"CCCC(=O)NCc1nnc(-c2cc3c(NC4CCN(C)CC4)cccc3n2CC(F)(F)F)s1 [Compound 65B, N-[(5-{4-[(1-methylpiperidin-4-yl)amino]-1-(2,2,2-trifluoroethyl)-1H-indol-2-yl}-1,3,4-thiadiazol-2-yl)methyl]butanamide]"
3,* (* = 0 μM ≤ SC150 < 0.1 μM),"COc1ccccc1C(=O)NCc1nnc(-c2cc3c(NC4CCN(C)CC4)cccc3n2CC(F)(F)F)s1 [Compound 66B, 2-methoxy-N-[(5-{4-[(1-methylpiperidin-4-yl)amino]-1-(2,2,2-trifluoroethyl)-1H-indol-2-yl}-1,3,4-thiadiazol-2-yl)methyl]benzamide]"
4,** (** = 0.1 μM ≤ SC150 < 0.5 μM),"CN1CCC(Nc2cccc3c2cc(-c2nnc(CNC(=O)N(C)C)s2)n3CC(F)(F)F)CC1 [Compound 68B, 3,3-dimethyl-1-[(5-{4-[(1-methylpiperidin-4-yl)amino]-1-(2,2,2-trifluoroethyl)-1H-indol-2-yl}-1,3,4-thiadiazol-2-yl)methyl]urea]"
5,* (* = 0 μM ≤ SC150 < 0.1 μM),"CN1CCC(Nc2cccc3c2cc(-c2nnc(CNC(=O)c4ccc5cn[nH]c5c4)s2)n3CC(F)(F)F)CC1 [Compound 69B, N-[(5-{4-[(1-methylpiperidin-4-yl)amino]-1-(2,2,2-trifluoroethyl)-1H-indol-2-yl}-1,3,4-thiadiazol-2-yl)methyl]-1H-indazole-6-carboxamide]"
6,* (* = 0 μM ≤ SC150 < 0.1 μM),"O=C(NCc1nnc(-c2cc3c(N[C@@H]4CCNC[C@@H]4F)cccc3n2CC(F)(F)F)s1)OCc1ccccc1 [Compound 70B, benzyl N-{[5-(4-{[(3S,4R)-3-fluoropiperidin-4-yl]amino}-1-(2,2,2-trifluoroethyl)-1H-indol-2-yl)-1,3,4-thiadiazol-2-yl]methyl}carbamate]"
7,** (** = 0.1 μM ≤ SC150 < 0.5 μM),"CN1CCC(Nc2cccc3c2cc(-c2nnc(CNC(=O)C4(C)CC4)s2)n3CC(F)(F)F)CC1 [Compound 71B, 1-methyl-N-[(5-{4-[(1-methylpiperidin-4-yl)amino]-1-(2,2,2-trifluoroethyl)-1H-indol-2-yl}-1,3,4-thiadiazol-2-yl)methyl]cyclopropane-1-carboxamide]"
8,* (* = 0 μM ≤ SC150 < 0.1 μM),"CN1CCC(Nc2cccc3c2cc(-c2nnc(CNC(=O)c4cn[nH]c4)s2)n3CC(F)(F)F)CC1 [Compound 72B, N-[(5-{4-[(1-methylpiperidin-4-yl)amino]-1-(2,2,2-trifluoroethyl)-1H-indol-2-yl}-1,3,4-thiadiazol-2-yl)methyl]-1H-pyrazole-4-carboxamide]"
9,** (** = 0.1 μM ≤ SC150 < 0.5 μM),"CCC1(C(=O)NCc2nnc(-c3cc4c(NC5CCN(C)CC5)cccc4n3CC(F)(F)F)s2)CC1 [Compound 74B, 1-ethyl-N-[(5-{4-[(1-methylpiperidin-4-yl)amino]-1-(2,2,2-trifluoroethyl)-1H-indol-2-yl}-1,3,4-thiadiazol-2-yl)methyl]cyclopropane-1-carboxamide]"
10,* (* = 0 μM ≤ SC150 < 0.1 μM),"CN1CCC(Nc2cccc3c2cc(-c2nnc(CNC(=O)c4ccn(C)c4)s2)n3CC(F)(F)F)CC1 [Compound 77B, 1-methyl-N-[(5-{4-[(1-methylpiperidin-4-yl)amino]-1-(2,2,2-trifluoroethyl)-1H-indol-2-yl}-1,3,4-thiadiazol-2-yl)methyl]-1H-pyrrole-3-carboxamide]"
11,* (* = 0 μM ≤ SC150 < 0.1 μM),"CN1CCC(Nc2cccc3c2cc(-c2nnc(CNC(=O)c4cc[nH]c4)s2)n3CC(F)(F)F)CC1 [Compound 78B, N-[(5-{4-[(1-methylpiperidin-4-yl)amino]-1-(2,2,2-trifluoroethyl)-1H-indol-2-yl}-1,3,4-thiadiazol-2-yl)methyl]-1H-pyrrole-3-carboxamide]"
12,* (* = 0 μM ≤ SC150 < 0.1 μM),"CN1CCC(Nc2cccc3c2cc(-c2nnc(CNC(=O)C4CC4c4cccs4)s2)n3CC(F)(F)F)CC1 (centres unmarked) [Compound 79B, N-[(5-{4-[(1-methylpiperidin-4-yl)amino]-1-(2,2,2-trifluoroethyl)-1H-indol-2-yl}-1,3,4-thiadiazol-2-yl)methyl]-2-(thiophen-2-yl)cyclopropane-1-carboxamide]"
13,**** (**** = 1 μM ≤ SC150 < 10 μM),"CN1CCC(Nc2cccc3c2cc(-c2nnc(CNC4CCNC4)s2)n3CC(F)(F)F)CC1 (centres unmarked) [Compound 80B, N-(1-methylpiperidin-4-yl)-2-(5-{[(pyrrolidin-3-yl)amino]methyl}-1,3,4-thiadiazol-2-yl)-1-(2,2,2-trifluoroethyl)-1H-indol-4-amine]"
14,** (** = 0.1 μM ≤ SC150 < 0.5 μM),"CN1CCC(Nc2cccc3c2cc(-c2nnc(CNc4cn[nH]c4)s2)n3CC(F)(F)F)CC1 [Compound 82B, N-(1-methylpiperidin-4-yl)-2-(5-{[(1H-pyrazol-4-yl)amino]methyl}-1,3,4-thiadiazol-2-yl)-1-(2,2,2-trifluoroethyl)-1H-indol-4-amine]"
15,** (** = 0.1 μM ≤ SC150 < 0.5 μM),"CN1CCC(Nc2cccc3c2cc(-c2ncc(CNC(=O)c4ccccc4)s2)n3CC(F)(F)F)CC1 [Compound 92B, N-[(2-{4-[(1-methylpiperidin-4-yl)amino]-1-(2,2,2-trifluoroethyl)-1H-indol-2-yl}-1,3-thiazol-5-yl)methyl]benzamide]"
16,* (* = 0 μM ≤ SC150 < 0.1 μM),"CN1CCC(Nc2cccc3c2cc(-c2ncc(CNC(=O)C4CC4)s2)n3CC(F)(F)F)CC1 [Compound 94B, N-[(2-{4-[(1-methylpiperidin-4-yl)amino]-1-(2,2,2-trifluoroethyl)-1H-indol-2-yl}-1,3-thiazol-5-yl)methyl]cyclopropanecarboxamide]"
17,* (* = 0 μM ≤ SC150 < 0.1 μM),"COc1cc(S(C)(=O)=O)ccc1NCc1cnc(-c2cc3c(N[C@@H]4CCN(C)C[C@@H]4F)cccc3n2CC(F)(F)F)s1 [Compound 99B, N-[(3S,4R)-3-fluoro-1-methylpiperidin-4-yl]-2-(5-{[(4-methanesulfonyl-2-methoxyphenyl)amino]methyl}-1,3-thiazol-2-yl)-1-(2,2,2-trifluoroethyl)-1H-indol-4-amine]"
18,** (** = 0.1 μM ≤ SC150 < 0.5 μM),"CN1CCC(Nc2cccc3c2cc(-c2ccc(CNc4ccc(S(C)(=O)=O)cc4)s2)n3CC(F)(F)F)CC1 [Compound 100B, 2-(5-{[(4-methanesulfonylphenyl)amino]methyl}thiophen-2-yl)-N-(1-methylpiperidin-4-yl)-1-(2,2,2-trifluoroethyl)-1H-indol-4-amine]"
19,** (** = 0.1 μM ≤ SC150 < 0.5 μM),"CN1CCC(Nc2cccc3c2cc(-c2nnc(CNc4ccccc4)o2)n3CC(F)(F)F)CC1 [Compound 108B, N-(1-methylpiperidin-4-yl)-2-{5-[(phenylamino)methyl]-1,3,4-oxadiazol-2-yl}-1-(2,2,2-trifluoroethyl)-1H-indol-4-amine]"
20,*** (*** = 0.5 μM ≤ SC150 < 1 μM),"CN1CCC(Nc2cccc3c2cc(-c2nnc(CNC(=O)C4CC4)o2)n3CC(F)(F)F)CC1 [Compound 110B, N-[(5-{4-[(1-methylpiperidin-4-yl)amino]-1-(2,2,2-trifluoroethyl)-1H-indol-2-yl}-1,3,4-oxadiazol-2-yl)methyl]cyclopropanecarboxamide]"
21,** (** = 0.1 μM ≤ SC150 < 0.5 μM),"CN1CCC(Nc2cccc3c2cc(-c2nnc(CNc4ccc(S(C)(=O)=O)cc4)o2)n3CC(F)(F)F)CC1 [Compound 111B, 2-(5-{[(4-methanesulfonylphenyl)amino]methyl}-1,3,4-oxadiazol-2-yl)-N-(1-methylpiperidin-4-yl)-1-(2,2,2-trifluoroethyl)-1H-indol-4-amine]"
22,*** (*** = 0.5 μM ≤ SC150 < 1 μM),"CN1CCC(Nc2cccc3c2cc(-c2nnc(CNc4cn[nH]c4)o2)n3CC(F)(F)F)CC1 [Compound 112B, N-(1-methylpiperidin-4-yl)-2-(5-{[(1H-pyrazol-4-yl)amino]methyl}-1,3,4-oxadiazol-2-yl)-1-(2,2,2-trifluoroethyl)-1H-indol-4-amine]"
23,* (* = 0 μM ≤ SC150 < 0.1 μM),"CN1CCC(Nc2cccc3c2cc(-c2nc(CNc4ccc(S(C)(=O)=O)cc4)no2)n3CC(F)(F)F)CC1 [Compound 136B, N-(1-methylpiperidin-4-yl)-2-(3-(((4-(methylsulfonyl)phenyl)amino)methyl)-1,2,4-oxadiazol-5-yl)-1-(2,2,2-trifluoroethyl)-1H-indol-4-amine]"
24,** (** = 0.1 μM ≤ SC150 < 0.5 μM),"CN1CCC(Nc2cccc3c2cc(-c2nc(CNC(=O)C4CC4)no2)n3CC(F)(F)F)CC1 [Compound 137B, N-[(5-{4-[(1-methylpiperidin-4-yl)amino]-1-(2,2,2-trifluoroethyl)-1H-indol-2-yl}-1,2,4-oxadiazol-3-yl)methyl]cyclopropanecarboxamide]"
25,** (** = 0.1 μM ≤ SC150 < 0.5 μM),"CN1CCC(Nc2cccc3c2cc(-c2nc(CNC(=O)c4ccccc4)no2)n3CC(F)(F)F)CC1 [Compound 138B, N-[(5-{4-[(1-methylpiperidin-4-yl)amino]-1-(2,2,2-trifluoroethyl)-1H-indol-2-yl}-1,2,4-oxadiazol-3-yl)methyl]benzamide]"
26,** (** = 0.1 μM ≤ SC150 < 0.5 μM),"CN1CCC(Nc2cccc3c2cc(-c2nc(CNC(=O)c4cccs4)no2)n3CC(F)(F)F)CC1 [Compound 139B, N-[(5-{4-[(1-methylpiperidin-4-yl)amino]-1-(2,2,2-trifluoroethyl)-1H-indol-2-yl}-1,2,4-oxadiazol-3-yl)methyl]thiophene-2-carboxamide]"
